Data reported in patent US20240083903A1, “ARYL ETHER COMPOUNDS AS TEAD MODULATORS” (Merck Sharp& Dohme LLC, priority 2021, published 2024).

The compounds below were run on TEAD Reporter-MCF7 cell line (assay: YAP/TEAD cellular activity assay: inhibition of TEAD-Luc activity in TEAD Reporter-MCF7 cell line). Details: Homo sapiens, MCF7, 24 h, TEAD Reporter-MCF7 cells, 24 hours incubation with compound, luciferase readout.
Assay type: cell-based, human
Protocol: YAP/TEAD Cellular Activity Assay
Quantitation of Compound Potency on the Inhibition of TEAD-Luc Activity in TEAD Reporter-MCF7 Cell Line.
The TEAD Reporter-MCF7 cell line containing the firefly luciferase gene under the control of TEAD responsive elements stably integrated into the human breast cancer cell line was purchased from BPS Bioscience (Cat #60618). The cells were cultured with complete culture medium ([…], 1 mM sodium pyruvate, 10% fetal bovine serum, 10 ng/mL insulin and 400 ug/mL G418 sulfate) prior to the assay. For the assay, the cells were harvested, resuspended in the complete culture medium without G418, and seeded into white solid bottom 384-well cell culture microplates in 25 uL with 10,000 cells per well. The plates were incubated at 37° C. in a CO2 incubator for 20-24 hours and the compounds were then transferred from Echo LDV plates directly into the 384-well white tissue culture plates with an Echo. The plates were incubated at 37° C. in a CO2 incubator for 24 hours and equal volume of ONE-Glo™ EX Luciferase reagent (Promega, Cat #E8150) was added. After mixing on a shaker at room temperature for 10 minutes, the luciferase activity was measured with an Envision. The percentage inhibition and EC50 values of compounds were calculated with Spotfire.
Required Materials • 1. TEAD reporter-MCF-7 Cells (BPS Bioscience, #60618) • 2. Complete Cell Culture Medium (without selection antibiotics) • EMEM 89% (ATCC, #30-2003) • FBS 10% (Hyclone, #SH30088.03) • 1% Non essential amino acids (Gibco, • 1 mM sodium pyruvate (Gibco, • Pen/Strep, 1% (Gibco, #15140-122) • 10 ng/mL insulin (Sigma, #10516) • 3. Complete Cell Culture Medium (with selection antibiotics) • EMEM 89% (ATCC, #30-2003) • F1% Non essential amino acids (Gibco, • 1 mM sodium pyruvate (Gibco, • BS 10% (Hyclone, #SH30088.03) • 10 ng/mL insulin (Sigma, #10516) • 400 ug/mL G418 sulfate (Agilent, #200049-21) • 4. Miscellaneous tissue culture equipment and reagents. • 5. White solid 384-well tissue culture plate (Greiner, Cat #781080) • 6. One Glo EX luciferase assay system (Promega, #E8150)
The following table tabulates the biological data disclosed for the current invention. The biological data was collected using the methodology described above. For each compound, TEAD-Luc EC50 values are listed in nanomolar (nM) concentration units.
`CNS(=O)(=O)c1ccc(Oc2ccc(C(F)(F)F)cc2)c(-c2cn3c(n2)CCC3)c1` [1-1, 3-(6,7-Dihydro-5H-pyrrolo[1,2-a]imidazol-2-yl)-N-methyl-4-(4-(trifluoromethyl)phenoxy)benzenesulfonamide] showed an EC50 of 6 nM. `CNS(=O)(=O)c1ccc(Oc2ccc(C(F)(F)F)cc2)c(-c2cc3n(n2)CCC3)c1` [1-2, 3-(5,6-Dihydro-4H-pyrrolo[1,2-b]pyrazol-2-yl)-N-methyl-4-(4-(trifluoromethyl)phenoxy)benzenesulfonamide] gave an EC50 of 5.1 nM. Compound `CNS(=O)(=O)c1ccc(Oc2ccc(C(F)(F)F)cc2)c(-c2cn3c(n2)COCC3)c1` [1-3, 3-(5,6-Dihydro-8H-imidazo[2,1-c] [1,4]oxazin-2-yl)-N-methyl-4-(4-(trifluoromethyl)phenoxy)benzenesulfonamide] has an EC50 of 36.2 nM. `CNS(=O)(=O)c1ccc(Oc2ccc(C(F)(F)F)cc2)c(-c2cnc3c(C)cccn23)c1` [1-4, N-Methyl-3-(8-methylimidazo[1,2-a]pyridin-3-yl)-4-(4-(trifluoromethyl)phenoxy)benzenesulfonamide] showed an EC50 of 6030 nM. Compound `CNS(=O)(=O)c1ccc(Oc2ccc(C(F)(F)F)cc2)c(-c2cnn3c2CCC3)c1` [1-5, 3-(5,6-dihydro-4H-pyrrolo[1,2-b]pyrazol-3-yl)-N-methyl-4-[4-(trifluoromethyl)phenoxy]benzene-1-sulfonamide] has an EC50 of 106 nM. `CNS(=O)(=O)c1ccc(Oc2ccc(C(F)(F)F)cc2)c(-c2cnc3n2CCC3)c1` [1-6, 3-(6,7-dihydro-5H-pyrrolo[1,2-a]imidazol-3-yl)-N-methyl-4-[4-(trifluoromethyl)phenoxy]benzene-1-sulfonamide] was tested, and the EC50 was 3490 nM. Work on `CNS(=O)(=O)c1ccc(Oc2ccc(C(F)(F)F)cc2)c(-c2ncc3cnccn23)c1` [1-7, 3-(imidazo[1,5-a]pyrazin-3-yl)-N-methyl-4-[4-(trifluoromethyl)phenoxy]benzene-1-sulfonamide] yielded an EC50 of 5350 nM. Compound `CNS(=O)(=O)c1ccc(Oc2ccc(C(F)(F)F)cc2)c(-c2[nH]nc3ccccc23)c1` [1-8, 3-(2H-indazol-3-yl)-N-methyl-4-[4-(trifluoromethyl)phenoxy]benzene-1-sulfonamide] has an EC50 of 2870 nM. Compound `CNS(=O)(=O)c1ccc(Oc2ccc(C(F)(F)F)cc2)c(-c2cn3c(n2)CCCC3)c1` [1-9, N-methyl-3-(5,6,7,8-tetrahydroimidazo [1,2-a]pyridin-2-yl)-4-[4-(trifluoromethyl)phenoxy]benzene-1-sulfonamide] has an EC50 of 12.8 nM. Work on `CNS(=O)(=O)c1ccc(Oc2ccc(C(F)(F)F)cc2)c(-c2nc3ncccn3n2)c1` [1-10, N-methyl-3-([1,2,4]triazolo[1,5-a]pyrimidin-2-yl)-4-[4-(trifluoromethyl)phenoxy]benzene-1-sulfonamide] yielded an EC50 of 454 nM. `CNS(=O)(=O)c1ccc(Oc2ccc(C(F)(F)F)cc2)c(-c2nc3cccnc3s2)c1` [1-11, N-methyl-3-([1,3]thiazolo[5,4-b]pyridin-2-yl)-4-[4-(trifluoromethyl)phenoxy]benzene-1-sulfonamide] was tested, and the EC50 was 238 nM. With `CNS(=O)(=O)c1ccc(Oc2ccc(C(F)(F)F)cc2)c(-c2nc3cc(OC)ccc3[nH]2)c1` [1-12, 3-(5-methoxy-1H-benzimidazol-2-yl)-N-methy1-4-[4-(trifluoromethyl)phenoxy]benzene-1-sulfonamide] the EC50 was 5440 nM. `CNS(=O)(=O)c1ccc(Oc2ccc(C(F)(F)F)cc2)c(-c2nsc3ccccc23)c1` [1-13, 3-(1,2-benzothiazol-3-yl)-N-methyl-4-[4-(trifluoromethyl)phenoxy]benzene-1-sulfonamide] showed an EC50 of 414 nM. Compound `CNS(=O)(=O)c1ccc(Oc2ccc(C(F)(F)F)cc2)c(-c2nc3c(s2)CNC3)c1` [1-14, 3-(5,6-dihydro-4H-pyrrolo[3,4-d] [1,3]thiazol-2-yl)-N-methyl-4-[4-(trifluoromethyl)phenoxy]benzene-1-sulfonamide] has an EC50 of 2640 nM. In the case of `CNS(=O)(=O)c1ccc(Oc2ccc(C(F)(F)F)cc2)c(-c2nc3cnccn3n2)c1` [1-15, N-methyl-3-([1,2,4]triazolo[1,5-a]pyrazin-2-yl)-4-[4-(trifluoromethyl)phenoxy]benzene-1-sulfonamide], the EC50 is reported as 540 nM. Compound `CNS(=O)(=O)c1ccc(Oc2ccc(C(F)(F)F)cc2)c(-c2cc3c(s2)CCNC3)c1` [1-16, N-methyl-3-(4,5,6,7-tetrahydrothieno[3,2-c]pyridin-2-yl)-4-[4-(trifluoromethyl)phenoxy]benzene-1-sulfonamide] has an EC50 of 4020 nM. With `CNS(=O)(=O)c1ccc(Oc2ccc(C(F)(F)F)cc2)c(-c2nc3n(c2C#N)CCNC3)c1` [1-17, 3-(3-cyano-5,6,7,8-tetrahydroimidazo[1,2-a]pyrazin-2-yl)-N-methyl-4-[4-(trifluoromethyl)phenoxy]benzene-1-sulfonamide] the EC50 was 1070 nM. In the case of `CNS(=O)(=O)c1ccc(Oc2ccc(C(F)(F)F)cc2)c(-c2cn3ccsc3n2)c1` [1-18, 3-(imidazo[2,1-b][1,3]thiazol-6-yl)-N-methyl-4-[4-(trifluoromethyl)phenoxy]benzene-1-sulfonamide], the EC50 is reported as 34.1 nM. `CNS(=O)(=O)c1ccc(Oc2ccc(C(F)(F)F)cc2)c(-c2cc3ncccn3n2)c1` [1-19, N-methyl-3-(pyrazolo[1,5-a]pyrimidin-2-yl)-4-[4-(trifluoromethyl)phenoxy]benzene-1-sulfonamide] gave an EC50 of 60.6 nM.

Same assay, conditions: TEAD Reporter-MCF7 cells, 24 hours incubation with compound, luciferase readout
Work on `CNS(=O)(=O)c1ccc(Oc2ccc(C(F)(F)F)cc2)c(-c2cn3c(n2)OC(C)C3)c1` (single isomer, unassigned) [1-38, (R)- or (S)-N-methyl-3-(2-methyl-2,3-dihydroimidazo[2,1-b] [1,3]oxazol-6-yl)-4-[4-(trifluoromethyl)phenoxy]benzene-1-sulfonamide] yielded an EC50 of 28.4 nM. `CNS(=O)(=O)c1ccc(Oc2ccc(C(F)(F)F)cc2)c(-c2cn3c(n2)OC(C)C3)c1` (single isomer, unassigned) [1-39, (S)- or (R)-N-methyl-3-(2-methyl-2,3-dihydroimidazo[2,1-b] [1,3]oxazol-6-yl)-4-[4-(trifluoromethyl)phenoxy]benzene-1-sulfonamide] gave an EC50 of 7.4 nM. For `CNS(=O)(=O)c1ccc(Oc2ccc(C(F)(F)F)cc2)c(-c2cn3c(n2)CC(C)C3)c1` (single isomer, unassigned) [1-41, (R)- or (S)-N-methyl-3-(6-methyl-6,7-dihydro-5H-pyrrolo [1,2-a]imidazol-2-yl)-4-[4-(trifluoromethyl)phenoxy]benzene-1-sulfonamide], the EC50 was 26.1 nM. With `CNS(=O)(=O)c1ccc(Oc2ccc(C(F)(F)F)cc2)c(-c2cn3c(n2)CC(C)C3)c1` (single isomer, unassigned) [1-42, (S)- or (R)-N-methyl-3-(6-methyl-6,7-dihydro-5H-pyrrolo[1,2-a]imidazol-2-yl)-4-[4-(trifluoromethyl)phenoxy]benzene-1-sulfonamide] the EC50 was 6.4 nM. For `CNS(=O)(=O)c1ccc(Oc2ccc(C(F)(F)F)cc2)c(-c2cn3c(n2)C(C)CC3)c1` (single isomer, unassigned) [1-43, (R)- or (S)-N-methyl-3-(7-methyl-6,7-dihydro-5H-pyrrolo[1,2-a]imidazol-2-yl)-4-[4-(trifluoromethyl)phenoxy]benzene-1-sulfonamide], the EC50 was 8.1 nM. In the case of `CNS(=O)(=O)c1ccc(Oc2ccc(C(F)(F)F)cc2)c(-c2cn3c(n2)C(C)CC3)c1` (single isomer, unassigned) [1-44, (S)- or (R)-N-methyl-3-(7-methyl-6,7-dihydro-5H-pyrrolo[1,2-a]imidazol-2-yl)-4-[4-(trifluoromethyl)phenoxy]benzene-1-sulfonamide], the EC50 is reported as 33.6 nM.
